Source: patent publication US6989448B2, “Heteroaryl alkyl alpha substituted peptidylamine calcium channel blockers” (priority 1998, dated 2006)
Structures can show the parent of a compound that is named as a salt. Each block holds one compound with its values, some of them ahead of it.

Key:
N-type Ca2+ channel = molecular target: T1, N-type Ca2+ channel (Homo sapiens, UniProt Q00975); assay: Measurement of N-type Ca2+ channel blocking potencies in IMR-32 cells using the fluorescent Ca2+ indicator Indo-1; type: cell-based; conditions: for IMR-32 % of Blockade @ μM: 5 μM nitrendipine; for IC50: K+-stimulated Ca2+ flux, 5 μM nitrendipine to block L-type channels, some values marked (est.)
T1 construct: host or cells: IMR-32 cells, differentiated with dibutyryl cAMP and bromodeoxyuridine
Experimental: Measurement of N-type Ca^2+ Channel Blocking Potencies of Compounds in IMR-32 Cells Using the Fluorescent Ca^2+ Indicator Indo-1
IMR-32 cells are a human tumoral cell line of neural origin. […] Calcium flux into these cells may be induced by stimulation with elevated potassium concentrations. The L-channel component of calcium flux may be blocked by adding 5 μM nitrendipine. The remaining component of calcium entry into the IMR-32 cells is due to calcium flux through N-type calcium channels. Intracellular calcium concentrations are measured using the fluorescent calcium indicator Indo-1. The effect of drug concentration on calcium uptake is studied.
The IMR-32 cell line was obtained from the American Type Culture Collection (Rockville, Md.). Cells were grown in Eagle's Minimum Essential Medium with Earle's salts supplemented with 10% fetal bovine serum, 2 mM L-Gln and antibiotic/antimycotic mixture (Gibco). At approximately 80% confluency, differentiation was induced by the addition of 1 mM dibutyryl cAMP and 2.5 μM bromodeoxyuridine to the medium. After 7 to 13 days of differentiation, cells were detached using 0.5 mM EDTA and loaded with 5 μM Indo-1 acetoxymethyl ester (Molecular Probes, Eugene, Oreg.) at 30° C. for 45 minutes Loaded cells were washed twice, resuspended (˜10^7 cells/mL) in assay buffer (10 mM HEPES/Tris pH 7.4 in Hank's Balanced Salt Solution without bicarbonate or phenol red containing 0.5% bovine serum albumin) and kept on ice until use. Fluorescence measurements were carried out in a Photon Technology International (PTI, South Brunswick, N.J.) Model RF-F3004 spectrofluorometer with dual emission monochromators using excitation at 350 nm and emission at 400 and 490 nm. The instrument was equipped with a thermostated cuvette holder with stirring capabilities, as well as with a computer-controlled pump which allowed for reagent addition during measurement. Instrument control and data collection was done by PTI's OSCAR software running on an IBM compatible computer. Different concentrations of the test compounds (60 μL in dimethyl sulfoxide) were added to 5.94 mL of assay buffer containing approximately 3×10^6 loaded cells, and 5 μM nitrendipine (in 30 μL EtOH) to block L-type Ca^2+ channels. Samples were incubated for 10 minutes at 30° C. and then aliquoted into three 10×10 mm disposable acrylic cuvettes. Emission signals at 400 and 490 nm were acquired from each cuvette at 30° C. for 50 seconds. At 20 seconds after the start of reading, cells were depolarized by the addition of 160 μL of stimulation solution (1 M KCl, 68 mM CaCl2) to the cuvette via the computer-controlled pump. Ratio of dual emission signals (400 nm/490 nm), which is proportional to intracellular Ca^2+ concentration, was plotted against time, and the difference between maximal response after stimulation and basal value (before stimulation) was determined. Values obtained in this way were plotted as a function of drug concentration. IC50 values of test compounds were calculated by fitting a 4-parameter logistic function to the data using the least squares method.

DBA/2 mice = assay: Audiogenic (sound-induced) seizure test in DBA/2 mice, protection from tonic seizures; type: in vivo; conditions: 30 mg/kg, intravenous, tested 15 or 45 minutes after injection
Experimental: In Vivo Biological Protocol
A compound of the present invention was dissolved in water using 10% (weight/volume) Emulphor (GAF Corp., Wayne, N.J.) surfactant. Substances were administered by intravenous injection into the retro-orbital venous sinus. All testing was performed 15 minutes or 45 minutes after drug injection. All the male mice, 3 to 4 weeks old, were obtained from Jackson Laboratories, Bar Harbour, Me. Immediately before anticonvulsant testing, mice were placed upon a wire mesh, 4 inches square suspended from a steel rod. The square was slowly inverted through 180 degree and mice observed for 30 seconds. Any mouse falling from the wire mesh was scored as ataxia.
Mice were placed into an enclosed acrylic plastic chamber (21 cm height, approximately 30 cm diameter) with a high-frequency speaker (4 cm diameter) in the center of the top lid. An audio signal generator (Protek Model B-810) was used to produce a continuous sinusoidal tone that was swept linearly in frequency between 8 kHz and 16 kHz once each 10 msec. The average sound pressure level (SPL) during stimulation was approximately 100 dB at the floor of the chamber. Mice were placed within the chamber and allowed to acclimatize for 1 minute. DBA/2 mice in the vehicle-treated group responded to the sound stimulus (applied until tonic extension occurred, or for a maximum of 60 sec) with a characteristic seizure sequence consisting of wild running followed by clonic seizures, and later by tonic extension, and finally by respiratory arrest and death in 80% or more of the mice. In vehicle-treated mice, the entire sequence of seizures to respiratory arrest lasts approximately 15 to 20 seconds.
The incidence of all the seizure phases in the drug-treated and vehicle-treated mice was recorded, and the occurrence of tonic seizures were used for calculating anticonvulsant ED50 values by probit analysis. Mice were used only once for testing at each time and dose point.

T1 sequence (Q00975 whole entry): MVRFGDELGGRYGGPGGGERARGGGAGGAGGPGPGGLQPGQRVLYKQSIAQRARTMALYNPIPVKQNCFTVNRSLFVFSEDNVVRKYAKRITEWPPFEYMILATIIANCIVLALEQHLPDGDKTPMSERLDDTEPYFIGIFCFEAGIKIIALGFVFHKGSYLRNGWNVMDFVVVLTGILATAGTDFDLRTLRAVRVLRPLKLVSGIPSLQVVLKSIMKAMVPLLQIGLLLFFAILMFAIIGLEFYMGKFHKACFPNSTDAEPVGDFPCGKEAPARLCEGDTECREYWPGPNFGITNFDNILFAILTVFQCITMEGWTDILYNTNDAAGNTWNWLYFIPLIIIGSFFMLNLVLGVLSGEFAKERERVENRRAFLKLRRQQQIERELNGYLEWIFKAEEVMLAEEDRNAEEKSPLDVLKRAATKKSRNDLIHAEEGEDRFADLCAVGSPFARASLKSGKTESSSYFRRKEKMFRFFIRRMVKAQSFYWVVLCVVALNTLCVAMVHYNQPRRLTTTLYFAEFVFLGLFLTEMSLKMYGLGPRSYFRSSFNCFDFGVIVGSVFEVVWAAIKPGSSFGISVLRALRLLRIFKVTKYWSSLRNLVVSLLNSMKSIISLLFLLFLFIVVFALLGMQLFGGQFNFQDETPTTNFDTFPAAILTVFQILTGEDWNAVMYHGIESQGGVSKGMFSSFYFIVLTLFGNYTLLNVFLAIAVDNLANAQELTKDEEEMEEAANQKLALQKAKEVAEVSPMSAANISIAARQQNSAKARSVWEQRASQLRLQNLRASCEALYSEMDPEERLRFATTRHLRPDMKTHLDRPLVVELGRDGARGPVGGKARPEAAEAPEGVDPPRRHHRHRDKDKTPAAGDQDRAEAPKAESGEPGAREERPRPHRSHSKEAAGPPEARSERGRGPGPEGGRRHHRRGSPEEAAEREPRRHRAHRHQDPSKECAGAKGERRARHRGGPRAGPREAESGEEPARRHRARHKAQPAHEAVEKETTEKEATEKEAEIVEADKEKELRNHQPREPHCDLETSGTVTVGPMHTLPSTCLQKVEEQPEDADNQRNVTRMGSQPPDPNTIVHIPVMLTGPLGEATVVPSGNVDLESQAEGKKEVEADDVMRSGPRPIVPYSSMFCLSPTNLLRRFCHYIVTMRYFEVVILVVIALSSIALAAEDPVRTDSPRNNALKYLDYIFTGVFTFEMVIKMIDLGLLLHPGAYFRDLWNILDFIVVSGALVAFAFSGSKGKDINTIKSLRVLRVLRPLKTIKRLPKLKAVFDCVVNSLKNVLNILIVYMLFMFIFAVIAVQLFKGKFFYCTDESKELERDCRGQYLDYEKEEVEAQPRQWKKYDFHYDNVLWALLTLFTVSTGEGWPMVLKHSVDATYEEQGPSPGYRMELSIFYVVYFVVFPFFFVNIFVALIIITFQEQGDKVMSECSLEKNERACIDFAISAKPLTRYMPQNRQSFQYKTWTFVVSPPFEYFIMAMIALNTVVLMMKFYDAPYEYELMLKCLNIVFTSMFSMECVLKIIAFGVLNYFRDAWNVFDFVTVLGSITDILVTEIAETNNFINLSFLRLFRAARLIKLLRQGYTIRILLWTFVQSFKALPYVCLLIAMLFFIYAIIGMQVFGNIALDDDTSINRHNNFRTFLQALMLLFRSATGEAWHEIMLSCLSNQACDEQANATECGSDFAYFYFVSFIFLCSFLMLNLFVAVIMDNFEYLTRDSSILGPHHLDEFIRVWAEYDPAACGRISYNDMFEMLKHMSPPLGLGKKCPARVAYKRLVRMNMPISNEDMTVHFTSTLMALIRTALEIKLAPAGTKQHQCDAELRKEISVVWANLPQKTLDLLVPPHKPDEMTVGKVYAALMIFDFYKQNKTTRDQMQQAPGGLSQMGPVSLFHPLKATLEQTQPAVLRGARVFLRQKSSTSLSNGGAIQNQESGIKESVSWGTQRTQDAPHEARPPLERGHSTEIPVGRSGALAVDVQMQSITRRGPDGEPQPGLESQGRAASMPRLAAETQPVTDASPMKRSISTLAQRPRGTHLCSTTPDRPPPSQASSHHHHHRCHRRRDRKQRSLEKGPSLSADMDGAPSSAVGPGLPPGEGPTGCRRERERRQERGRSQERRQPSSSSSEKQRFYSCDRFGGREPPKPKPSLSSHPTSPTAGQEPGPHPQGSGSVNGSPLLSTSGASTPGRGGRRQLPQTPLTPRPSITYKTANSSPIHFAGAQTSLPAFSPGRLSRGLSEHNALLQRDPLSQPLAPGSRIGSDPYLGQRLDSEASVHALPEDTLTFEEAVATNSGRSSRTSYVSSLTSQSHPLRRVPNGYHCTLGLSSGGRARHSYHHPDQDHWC
T1 sequence (P54289 25-956 partner limits assumed): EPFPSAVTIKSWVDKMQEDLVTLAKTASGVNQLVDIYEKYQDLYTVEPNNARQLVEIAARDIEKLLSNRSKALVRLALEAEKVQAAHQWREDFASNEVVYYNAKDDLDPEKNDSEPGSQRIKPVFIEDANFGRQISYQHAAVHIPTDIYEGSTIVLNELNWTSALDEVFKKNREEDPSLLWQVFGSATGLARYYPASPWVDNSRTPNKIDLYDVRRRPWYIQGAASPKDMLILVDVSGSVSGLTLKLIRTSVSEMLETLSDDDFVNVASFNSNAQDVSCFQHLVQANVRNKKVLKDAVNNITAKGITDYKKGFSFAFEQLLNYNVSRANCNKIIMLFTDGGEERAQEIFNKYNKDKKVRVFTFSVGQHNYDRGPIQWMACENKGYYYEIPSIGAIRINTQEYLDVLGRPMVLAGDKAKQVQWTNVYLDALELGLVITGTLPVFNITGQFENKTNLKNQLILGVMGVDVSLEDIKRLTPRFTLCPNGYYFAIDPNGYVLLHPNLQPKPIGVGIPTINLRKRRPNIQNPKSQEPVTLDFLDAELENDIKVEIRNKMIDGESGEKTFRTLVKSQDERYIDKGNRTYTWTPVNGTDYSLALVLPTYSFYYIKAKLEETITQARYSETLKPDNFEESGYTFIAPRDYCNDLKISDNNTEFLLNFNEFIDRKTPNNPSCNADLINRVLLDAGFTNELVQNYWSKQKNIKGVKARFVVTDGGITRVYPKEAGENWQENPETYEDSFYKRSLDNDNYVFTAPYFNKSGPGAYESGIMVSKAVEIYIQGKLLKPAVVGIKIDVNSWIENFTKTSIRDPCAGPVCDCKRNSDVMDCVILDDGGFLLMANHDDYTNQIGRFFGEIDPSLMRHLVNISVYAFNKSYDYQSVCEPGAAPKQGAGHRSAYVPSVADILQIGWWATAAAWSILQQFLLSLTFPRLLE
T1 sequence (P54289 957-1103 partner limits assumed): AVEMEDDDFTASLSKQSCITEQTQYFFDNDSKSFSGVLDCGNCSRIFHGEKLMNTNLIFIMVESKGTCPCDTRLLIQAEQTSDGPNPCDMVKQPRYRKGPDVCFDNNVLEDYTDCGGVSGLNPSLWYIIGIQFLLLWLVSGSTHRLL
T1 sequence (P54284 whole entry partner): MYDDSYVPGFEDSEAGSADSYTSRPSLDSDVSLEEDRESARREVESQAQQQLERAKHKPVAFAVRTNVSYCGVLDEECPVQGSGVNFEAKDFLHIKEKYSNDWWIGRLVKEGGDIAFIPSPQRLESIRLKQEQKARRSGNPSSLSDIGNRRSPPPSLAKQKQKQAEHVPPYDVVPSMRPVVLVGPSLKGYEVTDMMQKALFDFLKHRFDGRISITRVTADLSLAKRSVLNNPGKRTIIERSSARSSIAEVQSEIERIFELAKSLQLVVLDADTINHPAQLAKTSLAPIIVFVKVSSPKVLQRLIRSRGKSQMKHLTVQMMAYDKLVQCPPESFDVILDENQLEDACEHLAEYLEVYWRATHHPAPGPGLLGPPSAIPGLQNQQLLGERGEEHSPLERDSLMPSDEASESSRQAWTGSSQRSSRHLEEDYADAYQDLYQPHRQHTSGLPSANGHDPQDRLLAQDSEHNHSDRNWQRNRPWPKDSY

melting point: 243 to 244 °C
Compound: CC(C)(C)NC(=O)[C@H](Cc1ccc(OCc2ccccc2)cc1)NC(=O)[C@H](Cc1cscn1)NC1C=CCCC1 (stereo partly drawn) (as salt: HCl) [Example 6, [S—(R*,R*)]—N-[2-(4-Benzyloxy-phenyl)-1-tert-butylcarbamoyl-ethyl]-2-(cyclohex-2-enylamino)-3-thiazol-4-yl-propionamide]

melting point: 163 to 165 °C
Compound: CC(C)(C)NC(=O)[C@H](Cc1ccc(OCc2ccccc2)cc1)NC(=O)[C@H](Cc1c[nH]cn1)NCC1CCCCC1 (as salt: salt) [Example 8, [S—(R*,R*)]—N-[2-(4-Benzyloxy-phenyl)-1-tert-butylcarbamoyl-ethyl]-2-(cyclohexylmethyl-amino)-3-(1H-imidazol-4-yl)-propionamide]

IMR-32 % of Blockade @ μM (N-type Ca2+ channel; @ 1 μM): 79%
IMR-32 % of Blockade @ μM (N-type Ca2+ channel; @ 10 μM): 97%
Compound: CC(C)CCN[C@@H](Cc1cscn1)C(=O)NC(Cc1ccc(OCc2ccccc2)cc1)C(=O)NC(C)(C)C (stereo in doubt) [Example 5, [S—(R*,R*)]—N-[2-(4-Benzyloxy-phenyl)-1-tert-butylcarbamoyl-ethyl]-2-(3-methyl-butylamino)-3-thiazol-4-yl-propionamide]
DBA/2 mice % protection (dose) (DBA/2 mice): 100% @ 30 mg/kg

IC50 (N-type Ca2+ channel): 1.1 µM
Compound: CC(C)(C)NC(=O)[C@H](Cc1ccc(OCc2ccccc2)cc1)NC(=O)[C@H](Cc1cscn1)NC1C=CCCC1 (stereo partly drawn) [Example 6, [S—(R*,R*)]—N-[2-(4-Benzyloxy-phenyl)-1-tert-butylcarbamoyl-ethyl]-2-(cyclohex-2-enylamino)-3-thiazol-4-yl-propionamide]

IC50 (N-type Ca2+ channel): 0.67 µM
Compound: CC(C)(C)NC(=O)[C@H](Cc1ccc(OCc2ccccc2)cc1)NC(=O)[C@H](Cc1c[nH]cn1)NCC1CCCCC1 [Example 8, [S—(R*,R*)]—N-[2-(4-Benzyloxy-phenyl)-1-tert-butylcarbamoyl-ethyl]-2-(cyclohexylmethyl-amino)-3-(1H-imidazol-4-yl)-propionamide]

The next lines start with the compound.

Compound: CC(C)(C)NC(=O)[C@H](Cc1ccc(OCc2ccccc2)cc1)NC(=O)[C@H](Cc1ccncc1)NC1C=CCCC1 (stereo partly drawn) (as salt: HCl) [Example 2, [S-(R*,R*)]—N-[2-(4-Benzyloxy-phenyl)-1-tert-butylcarbamoyl-ethyl]-2-(cyclohex-2-enylamino)-3-pyridin-4-yl-propionamide]
melting point: 163 to 164 °C

Compound: CC(C)(C)NC(=O)[C@H](Cc1ccc(OCc2ccccc2)cc1)NC(=O)[C@H](Cc1cscn1)NC1CCCCC1 (relative stereo) [Example 7, [S—(R*,R*)]-N-[2-(4-Benzyloxy-phenyl)-1-tert-butylcarbamoyl-ethyl]-2-cyclohexylamino-3-thiazol-4-yl-propionamide]
IMR-32 % of Blockade @ μM (N-type Ca2+ channel; @ 1 μM): 67%
IMR-32 % of Blockade @ μM (N-type Ca2+ channel; @ 10 μM): 95%

Compound: CC(C)N[C@@H](Cc1c[nH]cn1)C(=O)N[C@@H](Cc1ccc(OCc2ccccc2)cc1)C(=O)NC(C)(C)C (relative stereo) [Example 9, [S—(R*,R*)]N-[2-(4-Benzyloxy-phenyl)-1-tert-butylcarbamoyl-ethyl]-2-(1-methylethyl-amino)-3-(1H-imidazol-4-yl)-propionamide]
IMR-32 % of Blockade @ μM (N-type Ca2+ channel; @ 1 μM): 11%
IMR-32 % of Blockade @ μM (N-type Ca2+ channel; @ 10 μM): 55%

Compound: CC(C)CCN[C@@H](Cc1cccnc1)C(=O)NC(Cc1ccc(OCc2ccccc2)cc1)C(=O)NC(C)(C)C (stereo in doubt) [Example 3, [S-(R*,R*)]—N-[2-(4-Benzyloxy-phenyl)-1-tert-butylcarbamoyl-ethyl]-2-(3-methyl-butylamino)-3-pyridin-3-yl-propionamide]
IC50 (N-type Ca2+ channel): 0.77 µM
DBA/2 mice % protection (dose) (DBA/2 mice): 80% @ 30 mg/kg

Compound: CC(C)CCN[C@@H](Cc1ccncc1)C(=O)N[C@@H](Cc1ccc(OCc2ccccc2)cc1)C(=O)NC(C)(C)C [Example 1, [S—(R*,R*)]—N-[2-(4-Benzyloxy-phenyl)-1-tert-butylcarbamoyl-ethyl]-2-(3-methyl-butylamino)-3-pyridin-4-yl-propionamide]
IC50 (N-type Ca2+ channel): 0.4 µM

Compound: CC(C)(C)NC(=O)[C@H](Cc1ccc(OCc2ccccc2)cc1)NC(=O)[C@H](Cc1ccncc1)NC1C=CCCC1 (stereo partly drawn) [Example 2, [S-(R*,R*)]—N-[2-(4-Benzyloxy-phenyl)-1-tert-butylcarbamoyl-ethyl]-2-(cyclohex-2-enylamino)-3-pyridin-4-yl-propionamide]
IC50 (N-type Ca2+ channel): 1.3 µM

Compound: CC(C)(C)NC(=O)[C@H](Cc1ccc(OCc2ccccc2)cc1)NC(=O)[C@H](Cc1cccnc1)NC1C=CCCC1 (stereo partly drawn) [Example 4, [S—(R*,R*)]—N-[2-(4-Benzyloxy-phenyl)-1-tert-butylcarbamoyl-ethyl]-2-(cyclohex-2-enylamino)-3-pyridin-3-yl-propionamide]
IC50 (N-type Ca2+ channel): 1 µM
DBA/2 mice % protection (dose) (DBA/2 mice): 60% @ 30 mg/kg
